Laboratory results from patent publication US20240316087A1, “Compositions And Methods For Inducing Apoptosis In Anaerobic Cells And Related Clinical Methods For Treating Cancer And Pathogenic Infections” (priority 2017, published 2024).

Assays:
[1] = system: EBV, hepatitis C, CMV and herpes II virus; assay: Viral load assays in treated patients; format: in vivo, human
Source text: These patients were selected as having been diagnosed with a heavy load, chronic viral infection and/or Stage IV cancer. Some of these subjects presented with only viral infection, and some with only Stage IV cancer, whereas a sizeable group of 64 subjects had co-morbid Stage IV cancer attended by a heavy load chronic viral infection. The principal viral subjects in these studies were Epstein Barr virus (EBV), hepatitis C virus, cytomegalovirus (CMV) and herpes virus.
Nagalase levels and viral load were quantified using conventional assays for each patient, before and after successive iv Salicinium® treatments, and after extended oral Salicinium follow-on therapy (using the […] and oral treatment protocol described in Example II, above).

[2] = system: proliferating cancer and non-cancer cells and viral-infected cells; assay: Salicinium uptake into proliferating and viral-infected cells; format: cell-based
[3] = system: circulating tumor cells (CTCs); assay: Salicinium induction of apoptosis in cultured circulating tumor cells from patient samples; format: cell-based, human
Source text: Circulating tumor cells (CTCs) were isolated and characterized from patients with diverse diagnoses of cancer (including a wide variety of primary cancer types, with and without metastasis) using conventional flow cytometry modified to a multiparameter flow cytometric panel employing magnetic bead separation methods to characterize CTCs and isolate them from patient blood samples. In one exemplary modified procedure for isolating and characterizing CTCs from breast cancer patients, the flow cytometry panel included CD45-PE/Cy7, CD31-RPE, pan cytokeratin-PE/Cy5, c-met-PE and MUC-1(CD227)-FITC. CTCs were identified as CD45-/CD31-/PanCK+/MUC1+and metastatic cells as CD45-/c-met+. CTC isolation and cultivation utilized PBMCs from patients isolated using ficoll centrifugation methods and incubated with EpCAM magnetic beads to isolate the CTCs.
Isolated CTCs were cultured in serum free RPMI medium. […] Apoptosis quantification was based on observed cytoplasmic, nuclear and membrane changes diagnostic for apoptosis. In early stage of apoptosis, cells expand and become round, detach from adjacent cells or substrate and shrink. In the cytoplasm, the endoplasmic reticulum expands and turns vacuolar. In the nucleus, chromatin condenses in a crescent form around the nuclear membranes and becomes more basophilic. Eventually the nucleus fragments and cells convert to apoptotic bodies in containing fragmented nuclear and cellular materials. In vivo these apoptotic bodies are recognized and digested by phagocytes without raising inflammatory responses.
Data were analyzed using SPSS software, and T test methodology was used to compare data sets. A significance level of p<0.05 was considered statistically significant.

caspase-9 = assay: Caspase-9 levels in Salicinium-treated versus control CTC samples; format: cell-based, human; details: diverse CTCs from different cancer types
Source text: Additional studies evaluated caspase levels in CTC samples treated or untreated with Salicinium. Caspases are major executants of apoptosis. […] During apoptosis these pro-enzymes are converted into active enzymes which mediate apoptosis in part by degrading intracellular proteins, for example cytoskeletal proteins, causing profound morphological changes of cells. Caspase-3 is activated by upstream caspases (caspase-8, caspase-9 or caspase-10), and in turn Caspase-3 activates endonuclease CAD (caspase activated DNase). […] In apoptosis, ICAD is cut by caspase-3 and release CAD, followed by rapid fragmentation of DNA.
Caspase-9 levels were compared in control CTC samples and Salicinium-treated CTC samples according to conventional assay methods.

[4] = 967 patient CTC samples, helicidum 0.5 mg/ml, 24 hours

Substance: 4-(beta-D-allopyranosyloxy)-benzaldehyde [Salicinium]
- treated subjects in whom high load viral infection became undetectable ([1]; EBV and herpes II subjects, within six months following initial iv treatment): 50%
- drop in median viral loads ([1]; EBV, hepatitis C, CMV and herpes II, first month): 20-25%
- additional drop in median viral loads ([1]; EBV, hepatitis C, CMV and herpes II, within three months after treatment): 20%
- viral subjects entirely clear of detectable virus ([1]; EBV, hepatitis C, herpes virus and CMV, after one year): 87%
- increase of Salicinium uptake compared to healthy cells ([2]; often): 2-5 times
- increase of Salicinium uptake compared to healthy cells ([2]; routinely, GLUT-mediated and other glycome transport): 50-100%
- increase of Salicinium uptake compared to healthy cells ([2]; up to): 10-15 times
- patient CTC samples showing no detectable apoptotic activity [3, 4]: 18%
- patient CTC samples showing statistically significant sensitivity to induction of apoptosis [3, 4]: 82%
- CTC cells in sample undergoing apoptosis ([3]; majority of other cancer types tested, single exposure, 24-hour test period): 20-25%
- CTC cells in sample undergoing apoptosis ([3]; more sensitive cancer types: lung, colorectal, sarcoma and renal cancer, single dose, 24 hours): 30-35%
- caspase-9 levels in treated versus control CTC samples (caspase-9): potent induction of elevated caspase-9 levels
